pKd: −log10 of the molar value. Where no end group is shown, it is not given here.
Legend:
human TRPV6b = biological target: T1, human TRPV6b (Homo sapiens, UniProt Q9H1D0); assay: Whole-cell patch clamp of calcium store operated current (ISOC) through TRPV6 in transfected LnCaP cells; type: cell-based
T1 construct: expressed in transfected cells; host or cells: LnCaP (ATCC CRL-1740), human lymph node prostate cancer cells
T1 sequence (Q9H1D0 41-765 limits assumed): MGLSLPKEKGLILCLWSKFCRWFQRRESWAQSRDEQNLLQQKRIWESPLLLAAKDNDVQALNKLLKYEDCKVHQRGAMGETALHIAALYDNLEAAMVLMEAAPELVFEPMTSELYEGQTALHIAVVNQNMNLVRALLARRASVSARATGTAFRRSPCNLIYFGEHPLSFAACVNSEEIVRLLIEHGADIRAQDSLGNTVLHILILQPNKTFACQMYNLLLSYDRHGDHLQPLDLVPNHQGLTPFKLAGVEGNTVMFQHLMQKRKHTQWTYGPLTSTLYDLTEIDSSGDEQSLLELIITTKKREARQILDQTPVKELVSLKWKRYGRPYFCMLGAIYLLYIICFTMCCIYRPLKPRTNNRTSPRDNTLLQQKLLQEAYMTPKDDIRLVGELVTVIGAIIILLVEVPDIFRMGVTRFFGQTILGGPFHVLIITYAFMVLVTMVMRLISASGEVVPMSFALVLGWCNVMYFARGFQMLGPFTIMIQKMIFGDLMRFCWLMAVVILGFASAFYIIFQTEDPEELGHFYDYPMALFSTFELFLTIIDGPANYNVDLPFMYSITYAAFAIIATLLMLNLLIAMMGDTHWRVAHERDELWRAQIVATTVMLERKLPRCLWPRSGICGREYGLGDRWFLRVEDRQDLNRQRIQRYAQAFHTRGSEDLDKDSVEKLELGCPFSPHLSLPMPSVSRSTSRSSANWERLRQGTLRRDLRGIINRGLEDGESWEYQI
Experimental: An expression vector (pCAGS-IRES-hTRPV6b) (Bodding et al. 2003) containing the nucleotide code for human TRPV6b was transfected into and expressed by human lymph node prostate cancer (LnCaP, ATCC CRL-1740). Patch clamping with whole-cell current acquisition was used to measure the calcium current through this channel. Cells were treated and calcium store operated current (ISOC) was measured with either SorC13 (n=90) or SorC27 (n=30) in a closed-circuit perfusion for 3 min at each of cumulative concentrations of 0 (baseline), 100 nM, 500 nM 1 uM, 30 uM and 100 uM. Washout perfusion was done at 2 mL/min for 3 min. […] Further, both C-peptides are very strong inhibitors of calcium current through the TRPV6 channel with inhibition constants in the 100 nM range.

[1] = test system: T47D breast cancer xenografts; assay: T-47D breast cancer xenograft, SorC13 with Paclitaxel (Example 27); type: in vivo, NOD/SCID mice; details: for % ΔT/ΔC (tumor volume normalized to control) / Mean tumour volume: alone or with SorC13; for Mean tumour volume: after 12-day rest post-treatment; for Mean tumor volume: day 12 of treatment, alone or with SorC13 300 mg/kg
Experimental: Tumor volumes (V) were calculated by caliper measurement using standard measurements of the width (W), length (L) and thickness (T) of tumors. Animals were randomized into treatment groups so that the median tumor volumes of each group were similar at the start of dosing. Percentage ΔT/ΔC values, as a measure of efficacy, were determined where ΔC refers to change in volume of control or untreated tumor, and ΔT refers to change in volume of treated tumor.
Animals were intraperitoneally (i.p.) injected with the vehicular control, or the low, medium or high doses of CAT or CAT and SorC13. Mice received low medium or high doses of CAT or CAT and SorC13 by i.p. injection every day for 12 days or CAT injections as set out in Table 10. Paclitaxel was injected first, followed by carboplatin 30 minutes later and then SorC13. The tumor volume and body weights were measured every day. As well, general health of the animals was monitored every day.
The human […] breast cancer cell line T-47D (ATCC #HTB-133), was cultured in growth media prepared with ATCC complete growth medium. The base medium for the T-47D cell line is ATCC-formulated RPMI-1640 Medium. The complete growth medium is supplemented with 0.2 Units/ml bovine insulin and fetal bovine serum to a final concentration of 10% (v/v). Cells were cultured at 37° C. in an atmosphere of 95% air and 5% carbon dioxide with sub-culturing done according to ATCC guidelines.
The cell preparation, formulation, implantation, measurement and treatment procedures were otherwise as described in Example 26 and Table 10 but with Paclitaxel at low (6 mg/kg), medium (10 mg/kg) and high (16 mg/kg) doses.

[2] = Tissue distribution of Cy5.5-labeled peptides by optical imaging; type: in vivo, CD1 mice; details: four hours after i.v. injection of 100 ug
Text: SorC13 and SorC27 were labeled with the near-infrared probe, Cy5.5. SorC13 was labeled at lysine-1 and lysine-8 with the infrared fluorescent probe cy5.5 through reaction with Cy5.5 NHS ester-activated process. SorC27 was labeled at the single cysteine thiol with Cy5.5 maleamide-activated reaction. The labeled peptides were purified with a combination of size exclusion chromatography and HPLC. The label, Cy5.5, fluoresces in the infra-red region after excitation with a scanning laser. The low energy laser is able to penetrate the animal to about 1 cm and, thus, by scanning prone and supine positions, the presence of the tagged peptides can be quantified in three dimensions.
Cy5.5-labeled peptides were intravenously injected into CD1 mice (4 for each compound) at 100 ug per animal in 100 uL, and animals were imaged live using an optical imaging system, Optix eXplorer (GE Healthcare Systems) at different time points (30 min, 90 min, 4 h). […] The bio-distribution of the labeled peptides in different organs and tissues were visualized and relatively quantified by optical imaging analysis. This protocol allows for visualization of the location of the labeled peptides and how the location changes over time. […] Nodes that accumulated the labeled peptides are indicated by line 1 (superfacial cervical nodes), line 4 (axillary nodes), line 5 (brachial nodes), line 8 (mesenteric nodes) and line 9 (inguinal nodes). FIGS. 8, 9 and 10 show the amounts of labeled peptides in various organs ex vivo.

Work on HPSKVDLPR [SorC9, HPSKVDLPR] yielded a pKd (human TRPV6b) of ~7.05.
With `C#CCN1C(C)=C(C(=O)OC)C(c2cccc([N+](=O)[O-])c2)C(C(=O)OCC)=C1C` (stereo not drawn) [MRS-1845, N-propargylnitrendipene, reference compound] the “inhibition of the calcium current” value (human TRPV6b; positive control at 5 uM) was “demonstrated inhibition of the calcium current”.
With `CC(=O)O[C@H]1C(=O)[C@@]2(C)[C@H]([C@H](OC(=O)c3ccccc3)[C@]3(O)C[C@H](OC(=O)[C@H](O)[C@@H](NC(=O)c4ccccc4)c4ccccc4)C(C)=C1C3(C)C)[C@]1(OC(C)=O)CO[C@@H]1C[C@@H]2O` [Paclitaxel] the “% ΔT/ΔC (tumor volume normalized to control)” value ([1]; Day 6, high Paclitaxel (16 mg/kg)) was 17.8%, the “% ΔT/ΔC (tumor volume normalized to control)” value ([1]; Day 6, low Paclitaxel (6 mg/kg)) was 26.0% and the “% ΔT/ΔC (tumor volume normalized to control)” value ([1]; Day 6, medium Paclitaxel (10 mg/kg)) was −4.0%. The “% ΔT/ΔC (tumor volume normalized to control)” value ([1]; Day 12, high Paclitaxel (16 mg/kg)) was −96.4%, the “% ΔT/ΔC (tumor volume normalized to control)” value ([1]; Day 12, low Paclitaxel (6 mg/kg)) was 16.3% and the “% ΔT/ΔC (tumor volume normalized to control)” value ([1]; Day 12, medium Paclitaxel (10 mg/kg)) was −45.9%. For the same molecule, the “% ΔT/ΔC (tumor volume normalized to control)” value ([1]; Day 18 (rest period), high Paclitaxel) was −112.4%, the “% ΔT/ΔC (tumor volume normalized to control)” value ([1]; Day 18 (rest period), low Paclitaxel) was 46.0% and the “% ΔT/ΔC (tumor volume normalized to control)” value ([1]; Day 18 (rest period), medium Paclitaxel) was −56.9%. The “% ΔT/ΔC (tumor volume normalized to control)” value ([1]; Day 24 (rest period), high Paclitaxel) was −88.4%, the “% ΔT/ΔC (tumor volume normalized to control)” value ([1]; Day 24 (rest period), low Paclitaxel) was 33.3% and the “% ΔT/ΔC (tumor volume normalized to control)” value ([1]; Day 24 (rest period), medium Paclitaxel) was −33.2%. The Mean tumour volume ([1]; high Paclitaxel (16 mg/kg)) was 20.24 mm^3, the Mean tumour volume ([1]; low Paclitaxel (6 mg/kg)) was 52.08 mm^3 and the Mean tumour volume ([1]; medium Paclitaxel (10 mg/kg)) was 35.52 mm^3. For the same molecule, the Mean tumor volume ([1]; high Paclitaxel (16 mg/kg)) was 26.47 mm^3, the Mean tumor volume ([1]; low Paclitaxel (6 mg/kg)) was 46.37 mm^3 and the Mean tumor volume ([1]; medium Paclitaxel (10 mg/kg)) was 36.23 mm^3.
For “SorC27-Cy5.5: SorC27 labeled at the single cysteine thiol with Cy5.5 (EGKLSSNDTEGGLC(Cy5.5)KEFLHPSKVDLPR)”, the “accumulation at lymph nodes (superfacial cervical, axillary, branchial, mesenteric, inguinal)” value [2] was “Significant accumulation”.
